The record followed here is PMC5974752, “Bax/Tubulin/Epithelial-Mesenchymal Pathways Determine the Efficacy of Silybin Analog HM015k in Colorectal Cancer Cell Growth and Metastasis” (Frontiers in Pharmacology, 2018).

The test system of assay [1] is HCT116. Kind of assay: MTT assay. Format: cell-based, human. Particulars: for IC50: Homo sapiens, HCT-116, MTT, 72 h incubation, mean ± SD of three experiments, read-out: IC50 ± SD, Colon HCT116. The method, then:
(§1) The 3-(4,5-dimethylthiazol-2-yl)-2,5-diphenyltetrazolium bromide (MTT) assay was used to determine the sensitivity of the different CRC cells to the novel silybin derivatives (Hussein et al., [2017]; Manivannan et al., [2017]). The cells were seeded at a density of 4,000–5,000 cells/well in 96 well plates and incubated with serial dilutions of the compounds (0, 0.1, 0.3, 1, 3, 10, 30, and 100 μM). The MTT dye (4 mg/ml) was added after 72 h of incubation and incubated with the cells for an additional 4 h at 37°C. Following incubation, the media was discarded and the formazan crystals were dissolved by adding 100 μL of DMSO to each well. A DTX 880 multimode detector (Beckman Coulter Life, Indianapolis IN, USA) was used to determine the absorbance readings at a wavelength of 570 nm. The IC50 values were determined based on 3 separate experiments, with each experiment done in triplicate. The selectivity of the compounds was determined by comparing their cytotoxicity for CRC to normal epithelial cell lines (CHO, and CRL1459).

A further assay deals with LOVO. Kind of assay: MTT assay. Particulars: Homo sapiens, 72 h incubation, mean ± SD of three experiments, read-out: IC50 ± SD, Colon LOVO. Format: cell-based. The method, then:
as §1
(In general: Tetrazolium dyes change colour on reduction, which living cells bring about.)

The subject of a further assay is S1. Kind of assay: MTT assay. It counts as cell-based. Particulars: Homo sapiens, 72 h incubation, mean ± SD of three experiments, read-out: IC50 ± SD, Colon S1. The method, then: as §1
In a further assay the test system is CRL-1459. The assay can be described thus: MTT assay, normal cell line. It counts as cell-based. Particulars: 72 h incubation, mean ± SD of three experiments. The method, then:
as §1

The subject of the next assay is CHO. The assay can be described thus: MTT assay, normal cell line. Format: cell-based, Chinese hamster. Particulars: Cricetulus griseus, 72 h incubation, mean ± SD of three experiments. The method, then: as §1
For assay [2], the system named is CRC cell lines (HCT116, LOVO, and S1). The assay can be described thus: MTT assay, CRC cell lines together. It counts as cell-based, human. The method, then: as §1
Assay [3] concerns HCT116 cells. Kind of assay: CellTiter-Glo luminescent assay (ATP content). Particulars: Homo sapiens, HCT-116, data not shown, read-out: IC50, ATP depletion. Format: cell-based. The method, then: Subsequently, we conducted experiments to determine if compound 15k produced a time-dependent effect on cell death. […] The HCT116 cells had intense fluorescence over time compared to the cells incubated with vehicle, with a significant difference in the number of dead cells after 24 h of incubation with 2 μM of 15k. […] The cytotoxicity of 15k and 15j in HCT116 cells were further determined using a more homogeneous CellTiter-Glo® luminescent cell based assay that measures the ATP content in the metabolically active cells.
A general note: ATP-based viability assays read luminescence as a measure of living cells.

The test system of assay [4] is HCT116 cells. Kind of assay: Colony formation assay. Particulars: 2 and 4 μM, 12 h incubation, colonies 10–14 days, vs vehicle control. Format: cell-based, human. The method, then: In this assay, HCT116 cells were seeded in 6 well plates at a density of 250,000 cells/plate and allowed to grow overnight. Compounds 15j and 15k (0, 2 or 4 μM) were added the following day. After 12 h of incubation, the medium was discarded and cells were trypsinized with 0.25% trypsin, 2.21 mM EDTA, 1X, harvested, counted and reseeded in 6 well plates at a low density (500 cell/well). The cells were allowed to form colonies for 10–14 days at 37°C, with the medium being changed every other day. Subsequently, methanol was used to fix the colonies formed in each plate, followed by dyeing the colonies with 0.1% crystal violet dye for 30 min. Finally, colonies were viewed and counted under an EVOS microscope (Themo Fisher Scientific, Wayne, MI, USA). The colony formation rate equation was applied for each compound: Colony formation rate = number of colonies/number of seeded cells × 100 %.

The test system of assay [5] is HCT116. Kind of assay: Cell cycle analysis (PI, flow cytometry). Particulars: 0, 2 or 4 μM, 12 h, data not shown. Format: cell-based, human. The method, then: Cell cycle analysis was performed as described previously (Pozarowski and Darzynkiewicz, [2004]). Briefly, a 6 well plate was used for the seeding of HCT116 at 1 × 10^6 cells/well. The next day, 15j and 15k (0, 2, or 4 μM) were added and incubated with the seeded cells. After 12 h, the cells were trypsinzed with 0.25% trypsin, 2.21 mM EDTA, 1X, washed, counted and resuspended in 0.5 ml of ice cold PBS. PI stain was added to each suspension for at least 15 min to stain the DNA. The cell cycle analysis and cell distribution for each phase was measured using a BD Accuri™ C6 flow cytometer (BD Biosciences, Becton-Dickinson, San Jose, CA, USA) and analyzed using FCS express 5 plus De Novo software (Glendale, CA, USA).
Background: Flow cytometry measures light scatter and fluorescence of single cells or particles in a stream.

Assay [6] deals with HCT116 cells. Kind of assay: MitoTracker Red / Alexa Fluor 488 annexin V flow cytometry. Format: cell-based, human. Particulars: 2 or 4 μM, p < 0.001 vs control, data not shown. The method, then:
The mitochondrial membrane potential and the induction of apoptosis were analyzed in HCT116 cells using the MitoTracker Red and Alexa Fluor 488 annexin V kits for flow cytometry as previously described (Karthikeyan et al., [2015]). Six well plates were used for seeding of cells, followed by incubation with 15j or 15k (0, 1, 2, and 4μM) for overnight. Subsequently, the cells were harvested, counted and 4 μl of a 10μM working solution of MitoTracker Red was added to each 1 ml cell suspension, followed by 30 min of incubation at 37°C with 5% CO2. The cells were resuspended in 100 μl of annexin binding buffer and 5 μl of Alexa Fluor 488 annexin V was added to the suspension and incubated for 15 min. Finally, 400 μl of annexin-binding buffer was added and the stained cells were detected by flow cytometry. The fluorescence emission at 530 and 585 nm was measured using a BD Accuri™ C6 flow cytometer and analyzed using FCS express 5 plus De Novo software.

For assay [7], the system named is LOVO cells. The assay can be described thus: Wound healing assay. Format: cell-based, human. Particulars: 2 and 4 μM, 24 h and 48 h, vs vehicle. The method, then: In brief, the metastatic CRC cells (LOVO) were seeded in 6 well plates and allowed to grow as a monolayer until they reached 100% confluence. Upon confluence, 200 μl sterile tips were used to create a wound by gentle scratching of the complete cell monolayer. Sterile PBS was used to wash the cells several times to remove any floating cells. Different concentrations of the test compound were prepared in the culture media and added immediately after wound formation. The closure of the wound was observed by taking pictures at different time points by an EVOS microscope. Finally, the area of the wounds at different time points was calculated using Image J software (NIH, Bethesda, Maryland, USA).

Assay [8] concerns LOVO cells. Kind of assay: Transwell migration assay. It counts as cell-based, human. Particulars: 2 and 4 μM, 24 h, vs vehicle. The method, then: (§2) The effect of compound 15k on the invasiveness of LOVO was tested using 24 trans-well inserts with an […]. The addition of the insert to the well forms two chambers (upper and lower), where the upper chamber was used to grow the cells on the porous membrane. The lower chamber was filled with 600 μl of cell-free DMEM medium. A 200 μl of cell suspension was added to each insert and allowed to attach for 1 h. The test compound was added in different concentrations and incubated with the cells for 24 h. […] Finally, the remaining migrated cells were fixed by methanol and dyed with 0.1% crystal violet dye and observed with an EVOS microscope. The number of migrated cells was counted and compared between the treated and control cells.

The next assay concerns COLO 205 cell line. Kind of assay: Transwell migration assay. Format: cell-based. Particulars: 2 and 4 μM, data not shown. The method, then:
as §2
The development of cancer metastasis is dependent on the migration and invasive properties of cancerous cells (van Zijl et al., [2011]). The wound healing and transwell migration assays were used with LOVO cells, as a model for metastatic CRC as it is characterized by a high level of invasiveness (Fan et al., [2015]). The wound healing assay is a well-established method to detect and analyze cell migration potential (Liang et al., [2007]). […] The effect of compound 15k on the invasiveness of COLO 205 cell line was also measured using trans-well migration assay. […] 15j also reversed cell migration and metastasis at different concentrations.

The IC50 is the midpoint of a concentration-inhibition curve.

For `O=C(/C=C/c1cccc(OCc2ccccc2)c1)c1ccccc1` [Compound 15a], the IC50 in the assay with HCT116 [1] worked out at 6.4 ± 0.2 µM; in the assay with LOVO, 11.5 ± 0.8 µM; with S1, 2.8 ± 0.5 µM; in the assay on CRL-1459, 7.8 ± 1 µM; in the assay with CHO, 22 ± 1.7 µM.
In the same order, the values of `O=C(/C=C/c1cccc(OCc2ccccc2)c1)c1ccc(Cl)cc1` [Compound 15b] are 12.7 ± 1.4 µM, 36.5 ± 1.5 µM, 9.5 ± 1.4 µM, 12.8 ± 2.1 µM and 43.6 ± 1.9 µM.
On to `O=C(/C=C/c1cccc(OCc2ccccc2)c1)c1ccc(Cl)cc1Cl` [Compound 15c], for which the half-inhibitory concentration (IC50) in the assay with HCT116 [1] turned out to be 9 ± 1.1 µM; in the assay on LOVO, 6.7 ± 2.2 µM; with S1, 6.9 ± 1.1 µM; in the assay on CRL-1459 it was 7.8 ± 1.1 µM; in the assay on CHO, 27.5 ± 1.2 µM.
In the same order, the values of `O=C(/C=C/c1cccc(OCc2ccccc2)c1)c1ccc([N+](=O)[O-])cc1` [Compound 15d] are 22.7 ± 4.2 µM, 36.3 ± 9.1 µM, 9 ± 1.2 µM, 26 ± 1.6 µM and 82.4 ± 1.7 µM.
In the same order, the values of `Cc1ccc(C(=O)/C=C/c2cccc(OCc3ccccc3)c2)cc1` [Compound 15e] are 16.5 ± 3.1 µM, 36.5 ± 1.3 µM, 22.4 ± 1.9 µM, 19.8 ± 1.3 µM and 26.4 ± 0.9 µM.
In the same order, the values of `COc1ccc(C(=O)/C=C/c2cccc(OCc3ccccc3)c2)cc1` [Compound 15f] are 44.7 ± 3.1 µM, 11.8 ± 3.5 µM, 23.4 ± 2.4 µM, 25.4 ± 1.9 µM and 22.9 ± 0.3 µM.
For the compound `O=C(/C=C/c1cccc(OCc2ccccc2)c1)c1ccc(Cl)c(Cl)c1Cl` [Compound 15g], the IC50 was 0.4 µM in the assay with HCT116 [1]; 2.4 ± 0.4 µM in the assay on LOVO; 2.3 ± 0.7 µM in the assay on S1; 2.5 ± 0.2 µM in the assay with CRL-1459; 8.6 ± 0.9 µM in the assay on CHO. Besides, the “fold more efficacious than compound 15c” value in the assay on HCT116 [1] (from MTT IC50, cell line not given) turned out to be 22 fold. For the same compound, the “fold more efficacious than compound 15c in LOVO and S1 cells” value in [2] (from MTT IC50, LOVO and S1) is recorded as “three-fold”.
Take `O=C(/C=C/c1cccc(OCc2ccccc2)c1)c1ccccc1Br` [Compound 15h]: the concentration for half-maximal inhibition (IC50) with HCT116 [1] was 0.7 ± 0.2 µM; in the assay on LOVO, 1.9 ± 0.3 µM; with S1 it was 1.9 ± 0.5 µM; with CRL-1459, 2.4 ± 0.9 µM; in the assay with CHO, 9.1 ± 0.2 µM.
For `O=C(/C=C/c1cccc(OCc2ccccc2)c1)c1cccc(Br)c1` [Compound 15i] the same measures were 1.9 ± 0.1 µM, 7.5 ± 0.9 µM, 6.2 ± 1.9 µM, 7.2 ± 0.9 µM and 9.2 ± 0.4 µM.
With `O=C(/C=C/c1cccc(OCc2ccccc2)c1)c1ccc(Br)cc1` [Compound 15j], the concentration for half-maximal inhibition (IC50) in the assay on HCT116 [1] was 1 ± 0.2 µM; in the assay on LOVO, 1.8 ± 0.4 µM; in the assay on S1, 2.4 ± 0.7 µM; in the assay with CRL-1459 it was 5.4 ± 1 µM; with CHO it was 9 ± 0.5 µM; in the assay on HCT116 cells [3] it was 690 nM. The “selectivity, CRC cells compared to normal cells” value in [2] (MTT, vs CRL1459 and CHO) was “selectively cytotoxic”. Moreover, in the assay with HCT116 cells [4], the colony formation rate result was “significantly decreased colony formation rate”. For the same compound, the “effect on the cell cycle” value in the assay on HCT116 [5] was “significantly increased the level of cells in the sub G1 phase”. In addition, the “mitochondrial membrane potential and apoptosis” value in the assay on HCT116 cells [6] was “significant reduction in membrane potential and increase in the number of cells undergoing apoptosis”. In addition, the “cell migration, wound closure” value in the assay on LOVO cells [7] is listed as “migrated significantly slower”. Moreover, the “number of cells migrated through transwell” value in the assay on LOVO cells [8] is “significantly reduced the trans-well migration”. Further, the trans-well migration entry in the assay with COLO 205 cell line is recorded as “significantly reduced the trans-well migration”.
